Key:
ACE = molecular target: T1, ACE (Homo sapiens, UniProt P12821); test: BioPrint Profile Panel; format: biochemical; conditions: Non-Kinase Enzyme, read-out: % of specific inhibition
T1 construct: purchased Eurofins Discovery (Cerep) BioPrint Profile Panel
Excerpt: (§1) The BioPrint® Profile Panel service offered by Eurofins Discovery (Poitiers, France) was chosen to perform selectivity analysis.

ACE-2 = molecular target: T2, ACE-2 (Homo sapiens, UniProt Q9BYF1); test: BioPrint Profile Panel; format: biochemical; conditions: Non-Kinase Enzyme, read-out: % of specific inhibition
T2 construct: purchased Eurofins Discovery (Cerep) BioPrint Profile Panel
Excerpt: as §1

ATPase (Na+/K+) = test: BioPrint Profile Panel; format: biochemical; conditions: 10 μM; Non-Kinase Enzyme
Excerpt: as §1

Abl kinase = molecular target: T3, Abl kinase (Homo sapiens, UniProt P00519); test: BioPrint Profile Panel; format: biochemical; conditions: read-out: % of specific inhibition
T3 construct: purchased Eurofins Discovery (Cerep) BioPrint Profile Panel
T3 sequence (P00519 whole entry): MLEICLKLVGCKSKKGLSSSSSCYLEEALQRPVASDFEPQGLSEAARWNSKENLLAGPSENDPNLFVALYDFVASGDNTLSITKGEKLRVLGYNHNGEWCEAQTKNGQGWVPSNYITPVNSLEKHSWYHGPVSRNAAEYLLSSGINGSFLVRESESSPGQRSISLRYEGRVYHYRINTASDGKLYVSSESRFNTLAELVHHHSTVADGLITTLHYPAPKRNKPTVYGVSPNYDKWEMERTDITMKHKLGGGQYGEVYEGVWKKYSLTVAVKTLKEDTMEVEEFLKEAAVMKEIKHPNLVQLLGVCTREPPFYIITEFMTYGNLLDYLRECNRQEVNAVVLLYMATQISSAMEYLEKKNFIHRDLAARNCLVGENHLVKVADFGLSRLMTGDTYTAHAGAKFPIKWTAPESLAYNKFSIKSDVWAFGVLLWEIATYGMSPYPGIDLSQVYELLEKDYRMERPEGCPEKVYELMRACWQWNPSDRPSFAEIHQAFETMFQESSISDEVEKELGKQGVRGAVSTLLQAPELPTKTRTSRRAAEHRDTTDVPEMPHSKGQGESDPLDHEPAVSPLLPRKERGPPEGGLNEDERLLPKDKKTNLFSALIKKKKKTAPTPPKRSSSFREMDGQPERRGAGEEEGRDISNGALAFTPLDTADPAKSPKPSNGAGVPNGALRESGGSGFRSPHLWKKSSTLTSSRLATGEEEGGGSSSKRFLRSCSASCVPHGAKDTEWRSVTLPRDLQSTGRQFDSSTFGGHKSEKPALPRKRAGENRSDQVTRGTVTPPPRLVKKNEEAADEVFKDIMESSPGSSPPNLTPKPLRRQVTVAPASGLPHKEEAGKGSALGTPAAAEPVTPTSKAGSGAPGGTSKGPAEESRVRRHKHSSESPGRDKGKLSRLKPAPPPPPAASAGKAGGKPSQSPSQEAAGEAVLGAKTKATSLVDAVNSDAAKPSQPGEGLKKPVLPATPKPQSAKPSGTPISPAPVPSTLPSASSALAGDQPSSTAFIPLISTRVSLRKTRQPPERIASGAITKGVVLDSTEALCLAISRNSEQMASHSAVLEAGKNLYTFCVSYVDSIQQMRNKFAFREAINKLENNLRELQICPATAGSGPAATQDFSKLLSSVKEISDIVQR
Excerpt: as §1

BACE-1 = molecular target: T4, BACE-1 (Homo sapiens, UniProt P56817); test: BioPrint Profile Panel; format: biochemical; conditions: Non-Kinase Enzyme, read-out: % of specific inhibition
T4 construct: purchased Eurofins Discovery (Cerep) BioPrint Profile Panel
T4 sequence (P56817 46-501): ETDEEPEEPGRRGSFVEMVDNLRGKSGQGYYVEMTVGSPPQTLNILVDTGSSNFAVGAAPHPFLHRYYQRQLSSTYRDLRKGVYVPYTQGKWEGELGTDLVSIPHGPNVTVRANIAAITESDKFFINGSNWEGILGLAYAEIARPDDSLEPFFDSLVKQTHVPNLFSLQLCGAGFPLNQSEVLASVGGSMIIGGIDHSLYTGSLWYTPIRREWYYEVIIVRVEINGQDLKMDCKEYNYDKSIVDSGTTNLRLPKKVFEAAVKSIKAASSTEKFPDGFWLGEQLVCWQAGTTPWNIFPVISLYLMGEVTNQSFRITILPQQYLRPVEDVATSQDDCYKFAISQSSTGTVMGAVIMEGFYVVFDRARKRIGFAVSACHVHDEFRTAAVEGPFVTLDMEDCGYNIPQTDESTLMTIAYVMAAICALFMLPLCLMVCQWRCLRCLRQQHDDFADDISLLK
Excerpt: as §1

CDK2 = molecular target: T5, CDK2 (Homo sapiens, UniProt P24941); test: BioPrint Profile Panel; format: biochemical; conditions: Kinase, read-out: % of specific inhibition
T5 construct: purchased Eurofins Discovery (Cerep) BioPrint Profile Panel
Excerpt: as §1

COX1 = molecular target: T6, COX1 (Homo sapiens, UniProt P23219); test: BioPrint Profile Panel; format: biochemical; conditions: Non-Kinase Enzyme, read-out: % of specific inhibition
T6 construct: purchased Eurofins Discovery (Cerep) BioPrint Profile Panel
Excerpt: as §1

COX2 = molecular target: T7, COX2 (Homo sapiens, UniProt P35354); test: BioPrint Profile Panel; format: biochemical; conditions: Non-Kinase Enzyme
T7 construct: purchased Eurofins Discovery (Cerep) BioPrint Profile Panel
T7 sequence (P35354 18-604): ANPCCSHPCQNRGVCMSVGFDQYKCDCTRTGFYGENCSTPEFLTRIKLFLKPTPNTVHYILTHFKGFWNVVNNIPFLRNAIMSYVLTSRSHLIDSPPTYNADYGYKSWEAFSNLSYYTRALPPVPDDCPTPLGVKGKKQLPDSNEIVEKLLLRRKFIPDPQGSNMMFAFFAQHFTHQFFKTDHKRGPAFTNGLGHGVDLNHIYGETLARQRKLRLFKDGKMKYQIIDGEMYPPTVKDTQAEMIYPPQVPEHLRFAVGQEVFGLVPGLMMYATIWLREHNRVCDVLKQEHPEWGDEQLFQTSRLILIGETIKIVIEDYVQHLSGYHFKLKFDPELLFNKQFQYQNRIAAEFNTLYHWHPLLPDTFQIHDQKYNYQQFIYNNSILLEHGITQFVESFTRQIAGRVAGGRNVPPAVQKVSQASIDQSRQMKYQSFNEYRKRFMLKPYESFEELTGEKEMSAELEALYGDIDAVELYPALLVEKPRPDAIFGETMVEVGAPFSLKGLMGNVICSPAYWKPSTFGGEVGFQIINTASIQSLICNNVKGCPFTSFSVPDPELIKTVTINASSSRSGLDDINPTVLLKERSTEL
Excerpt: as §1

ERK2 = molecular target: T8, ERK2 (Homo sapiens, UniProt P28482); test: BioPrint Profile Panel; format: biochemical; conditions: Kinase, read-out: % of specific inhibition
T8 construct: purchased Eurofins Discovery (Cerep) BioPrint Profile Panel
Excerpt: as §1

FLT-1 kinase = molecular target: T9, FLT-1 kinase (Homo sapiens, UniProt P17948); test: BioPrint Profile Panel; format: biochemical; conditions: read-out: % of specific inhibition
T9 construct: purchased Eurofins Discovery (Cerep) BioPrint Profile Panel
Excerpt: as §1

Fyn kinase = molecular target: T10, Fyn kinase (Homo sapiens, UniProt P06241); test: BioPrint Profile Panel; format: biochemical; conditions: read-out: % of specific inhibition
T10 construct: purchased Eurofins Discovery (Cerep) BioPrint Profile Panel
Excerpt: as §1

Guanylyl cyclase = test: BioPrint Profile Panel; format: biochemical; conditions: 10 μM; Activator effect
Excerpt: as §1

HIV-1 protease = test: BioPrint Profile Panel; format: biochemical; conditions: 10 μM; Non-Kinase Enzyme
Excerpt: as §1

IRK = molecular target: T11, IRK (Homo sapiens, UniProt P06213); test: BioPrint Profile Panel; format: biochemical; conditions: Kinase, read-out: % of specific inhibition
T11 construct: purchased Eurofins Discovery (Cerep) BioPrint Profile Panel
Excerpt: as §1

Lyn A kinase = molecular target: T12, Lyn A kinase (Homo sapiens, UniProt P07948); test: BioPrint Profile Panel; format: biochemical
T12 construct: purchased Eurofins Discovery (Cerep) BioPrint Profile Panel
T12 sequence (P07948 whole entry): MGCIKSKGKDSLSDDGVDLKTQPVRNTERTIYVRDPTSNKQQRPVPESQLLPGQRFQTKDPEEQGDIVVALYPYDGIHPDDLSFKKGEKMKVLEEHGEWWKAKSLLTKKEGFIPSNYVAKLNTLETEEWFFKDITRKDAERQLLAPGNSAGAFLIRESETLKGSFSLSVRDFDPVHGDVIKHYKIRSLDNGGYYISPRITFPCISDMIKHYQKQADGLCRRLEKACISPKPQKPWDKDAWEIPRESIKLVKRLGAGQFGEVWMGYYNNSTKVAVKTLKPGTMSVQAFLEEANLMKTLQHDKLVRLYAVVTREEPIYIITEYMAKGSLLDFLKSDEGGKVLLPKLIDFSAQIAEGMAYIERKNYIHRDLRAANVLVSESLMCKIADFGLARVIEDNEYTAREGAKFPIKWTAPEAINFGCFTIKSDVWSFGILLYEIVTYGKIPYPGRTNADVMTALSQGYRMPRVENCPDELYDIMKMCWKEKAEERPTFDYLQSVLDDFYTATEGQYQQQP
Excerpt: as §1

MMP-1 = molecular target: T13, MMP-1 (Homo sapiens, UniProt P03956); test: BioPrint Profile Panel; format: biochemical; conditions: Non-Kinase Enzyme, read-out: % of specific inhibition
T13 construct: purchased Eurofins Discovery (Cerep) BioPrint Profile Panel
Excerpt: as §1

MMP-2 = molecular target: T14, MMP-2 (Homo sapiens, UniProt P08253); test: BioPrint Profile Panel; format: biochemical; conditions: Non-Kinase Enzyme
T14 construct: purchased Eurofins Discovery (Cerep) BioPrint Profile Panel
T14 sequence (P08253 110-660): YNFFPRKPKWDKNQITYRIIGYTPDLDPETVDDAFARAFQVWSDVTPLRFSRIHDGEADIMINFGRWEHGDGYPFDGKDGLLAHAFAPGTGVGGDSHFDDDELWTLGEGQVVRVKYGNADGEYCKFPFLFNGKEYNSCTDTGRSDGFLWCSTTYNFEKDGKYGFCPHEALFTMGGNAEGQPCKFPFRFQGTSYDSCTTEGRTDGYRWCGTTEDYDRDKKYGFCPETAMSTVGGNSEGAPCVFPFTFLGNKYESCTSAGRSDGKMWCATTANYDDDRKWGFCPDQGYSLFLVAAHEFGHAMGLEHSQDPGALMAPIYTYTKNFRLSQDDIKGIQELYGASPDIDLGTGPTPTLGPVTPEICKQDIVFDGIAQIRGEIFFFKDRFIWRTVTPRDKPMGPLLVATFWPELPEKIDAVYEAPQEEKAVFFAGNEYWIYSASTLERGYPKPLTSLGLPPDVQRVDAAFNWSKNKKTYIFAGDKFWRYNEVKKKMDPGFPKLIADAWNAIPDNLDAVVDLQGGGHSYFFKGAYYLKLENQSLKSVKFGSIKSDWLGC
Excerpt: as §1

MMP-9 = molecular target: T15, MMP-9 (Homo sapiens, UniProt P14780); test: BioPrint Profile Panel; format: biochemical; conditions: Non-Kinase Enzyme, read-out: % Inhibition of Control Specific Binding
T15 construct: purchased Eurofins Discovery (Cerep) BioPrint Profile Panel
Excerpt: as §1

PDE2A1 = PDE2A1 (Homo sapiens, UniProt O00408); test: BioPrint Profile Panel; format: biochemical; conditions: Non-Kinase Enzyme, read-out: % of specific inhibition
Excerpt: as §1

PDE4D2 = molecular target: T16, PDE4D2 (Homo sapiens, UniProt Q08499); test: BioPrint Profile Panel; format: biochemical; conditions: Non-Kinase Enzyme, read-out: % of specific inhibition
T16 construct: purchased Eurofins Discovery (Cerep) BioPrint Profile Panel
T16 sequence (Q08499 303-809): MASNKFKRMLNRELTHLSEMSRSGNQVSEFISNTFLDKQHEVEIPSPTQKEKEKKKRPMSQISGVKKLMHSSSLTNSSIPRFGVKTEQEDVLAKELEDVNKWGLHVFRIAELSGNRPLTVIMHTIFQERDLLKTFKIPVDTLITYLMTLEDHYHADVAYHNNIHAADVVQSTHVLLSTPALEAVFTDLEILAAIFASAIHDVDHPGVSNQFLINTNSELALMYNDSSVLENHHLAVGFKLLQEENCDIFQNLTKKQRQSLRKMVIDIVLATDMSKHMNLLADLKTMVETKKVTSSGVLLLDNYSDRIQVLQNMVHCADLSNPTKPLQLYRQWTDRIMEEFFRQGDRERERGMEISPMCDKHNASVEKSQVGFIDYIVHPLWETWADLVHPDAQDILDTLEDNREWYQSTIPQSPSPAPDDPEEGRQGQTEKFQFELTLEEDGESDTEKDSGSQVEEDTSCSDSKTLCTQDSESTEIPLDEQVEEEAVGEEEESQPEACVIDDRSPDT
Excerpt: as §1

PDE5 = molecular target: T17, PDE5 (Homo sapiens, UniProt O76074); test: BioPrint Profile Panel; format: biochemical; conditions: Non-Kinase Enzyme, read-out: % of specific inhibition
T17 construct: purchased Eurofins Discovery (Cerep) BioPrint Profile Panel
Excerpt: as §1

PDE6 = test: BioPrint Profile Panel; format: biochemical; conditions: 10 μM; Non-Kinase Enzyme
Excerpt: as §1

[1] = molecular target: T18, Xanthine oxidase/ superoxide O2-scavenging (Bos taurus, UniProt P80457); test: BioPrint Profile Panel; format: biochemical; conditions: Non-Kinase Enzyme
T18 construct: purchased Eurofins Discovery (Cerep) BioPrint Profile Panel
T18 sequence (P80457 whole entry): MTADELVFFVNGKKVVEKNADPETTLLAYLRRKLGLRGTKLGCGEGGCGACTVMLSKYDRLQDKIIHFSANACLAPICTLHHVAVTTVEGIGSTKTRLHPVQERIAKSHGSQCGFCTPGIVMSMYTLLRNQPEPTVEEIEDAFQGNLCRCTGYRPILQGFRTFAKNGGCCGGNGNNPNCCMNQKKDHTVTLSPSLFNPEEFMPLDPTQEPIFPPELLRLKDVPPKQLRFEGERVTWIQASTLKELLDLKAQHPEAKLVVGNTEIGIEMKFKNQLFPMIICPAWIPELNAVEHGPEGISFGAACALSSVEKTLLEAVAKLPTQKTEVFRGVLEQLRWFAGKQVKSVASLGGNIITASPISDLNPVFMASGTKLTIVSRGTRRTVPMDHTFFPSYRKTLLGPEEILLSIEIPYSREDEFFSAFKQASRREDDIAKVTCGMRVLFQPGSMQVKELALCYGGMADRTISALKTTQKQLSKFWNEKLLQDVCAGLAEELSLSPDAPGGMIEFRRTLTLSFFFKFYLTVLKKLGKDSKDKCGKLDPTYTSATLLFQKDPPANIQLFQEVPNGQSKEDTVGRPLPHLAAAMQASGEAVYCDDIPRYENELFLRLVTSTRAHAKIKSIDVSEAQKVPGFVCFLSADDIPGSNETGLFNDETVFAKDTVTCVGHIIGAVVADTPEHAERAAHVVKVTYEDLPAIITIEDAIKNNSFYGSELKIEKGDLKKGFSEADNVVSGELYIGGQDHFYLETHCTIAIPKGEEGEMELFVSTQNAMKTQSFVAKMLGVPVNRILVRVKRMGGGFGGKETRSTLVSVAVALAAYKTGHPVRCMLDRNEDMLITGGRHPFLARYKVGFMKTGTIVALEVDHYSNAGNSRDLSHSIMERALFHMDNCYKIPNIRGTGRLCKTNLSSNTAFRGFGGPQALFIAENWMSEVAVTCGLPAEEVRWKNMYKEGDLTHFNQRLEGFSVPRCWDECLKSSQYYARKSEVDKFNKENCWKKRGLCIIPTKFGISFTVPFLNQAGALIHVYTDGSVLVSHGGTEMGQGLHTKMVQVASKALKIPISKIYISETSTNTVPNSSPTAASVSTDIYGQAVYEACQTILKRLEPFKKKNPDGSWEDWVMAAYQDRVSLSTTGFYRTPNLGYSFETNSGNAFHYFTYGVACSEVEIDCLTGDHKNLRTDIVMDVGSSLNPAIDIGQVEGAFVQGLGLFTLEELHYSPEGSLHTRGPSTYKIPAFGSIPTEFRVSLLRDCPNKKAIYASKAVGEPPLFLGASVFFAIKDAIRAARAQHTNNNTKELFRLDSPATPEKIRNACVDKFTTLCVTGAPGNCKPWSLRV
Excerpt: as §1

ZAP70 kinase = molecular target: T19, ZAP70 kinase (Homo sapiens, UniProt P43403); test: BioPrint Profile Panel; format: biochemical; conditions: read-out: % of specific inhibition
T19 construct: purchased Eurofins Discovery (Cerep) BioPrint Profile Panel
Excerpt: as §1

acetylcholinesterase = molecular target: T20, acetylcholinesterase (Homo sapiens, UniProt P22303); test: BioPrint Profile Panel; format: biochemical; conditions: Non-Kinase Enzyme, read-out: % of specific inhibition
T20 construct: purchased Eurofins Discovery (Cerep) BioPrint Profile Panel
Excerpt: as §1

caspase-3 = molecular target: T21, caspase-3 (Homo sapiens, UniProt P42574); test: BioPrint Profile Panel; format: biochemical; conditions: Non-Kinase Enzyme, read-out: % of specific inhibition
T21 construct: purchased Eurofins Discovery (Cerep) BioPrint Profile Panel
Excerpt: as §1

inducible NOS = test: BioPrint Profile Panel; format: biochemical; conditions: 10 μM; Non-Kinase Enzyme
Excerpt: as §1

p38α kinase = molecular target: T22, p38α kinase (Homo sapiens, UniProt Q16539); test: BioPrint Profile Panel; format: biochemical; conditions: read-out: % of specific inhibition
T22 construct: purchased Eurofins Discovery (Cerep) BioPrint Profile Panel
Excerpt: as §1

in vitro = conditions: mouse, microsomes
[2] = read-out: % Inhibition of Control Specific Binding

Q: What does the source list for `O=c1cc(-c2ccccc2)oc2c(O)c(O)ccc12` [7,8-DHF, 7,8-dihydroxyflavone]?
A: inhibition at 10 µM (ACE): 5%; inhibition at 10 µM (ACE-2): -8%; % of specific inhibition (ATPase (Na+/K+)): -2%; inhibition at 10 µM (Abl kinase): 25%; inhibition at 10 µM (BACE-1): 15%; inhibition at 10 µM (CDK2): 0%; inhibition at 10 µM (COX1): 49%; % Inhibition of Control Specific Binding (COX2; 10 μM): 81.6%; inhibition at 10 µM (COX2; [2]): 82%; inhibition at 10 µM (ERK2): -23%; inhibition at 10 µM (FLT-1 kinase): 17%; inhibition at 10 µM (Fyn kinase): 21%; % of specific inhibition (Guanylyl cyclase): 2%; % of specific inhibition (HIV-1 protease): 1%; inhibition at 10 µM (IRK): 12%; % Inhibition of Control Specific Binding (Lyn A kinase; 10 μM): 52.6%; inhibition at 10 µM (Lyn A kinase; [2]): 53%; inhibition at 10 µM (MMP-1): 10%; % Inhibition of Control Specific Binding (MMP-2; 10 μM): 56.5%; inhibition at 10 µM (MMP-2; [2]): 56%; inhibition at 10 µM (MMP-9): 72%; inhibition at 10 µM (PDE2A1): 5%; inhibition at 10 µM (PDE4D2): 38%; inhibition at 10 µM (PDE5): 48%; % of specific inhibition (PDE6): 30%; % Inhibition of Control Specific Binding ([1]; 10 μM): 91.5%; inhibition at 10 µM [1, 2]: 92%; inhibition at 10 µM (ZAP70 kinase): 4%; inhibition at 10 µM (acetylcholinesterase): 5%; inhibition at 10 µM (caspase-3): 1%; % of specific inhibition (inducible NOS): 3%; inhibition at 10 µM (p38α kinase): -50%; microsomal CLint at 1 μM (in vitro): 21.3 µL/min/mg

— PMC8398766, “Do Small Molecules Activate the TrkB Receptor in the Same Manner as BDNF? Limitations of Published TrkB Low Molecular Agonists and Screening for Novel TrkB Orthosteric Agonists” (Pharmaceuticals, 2021)
